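A five-concentration, 48-hour dose response in 96-well plates underlies each endpoint, interpolated linearly between surrounding concentrations. TGI denotes the concentration required for complete inhibition of growth.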
Columns and labels:
Test in all cases: DTP human tumour cell line panel, 48 h
[1] = test system: HT29 colon
[2] = test system: CAKI-1 renal
[3] = test system: COLO 205 colon
[4] = test system: HOP-92 NSCLC
[5] = test system: SK-MEL-2 melanoma
[6] = test system: OVCAR-4 ovarian
[7] = test system: MCF7 breast
[8] = test system: T-47D breast
[9] = test system: UACC-62 melanoma
[10] = test system: DU-145 prostate
[11] = test system: NCI-H23 lung
[12] = test system: OVCAR-3 ovarian
[13] = test system: HL-60(TB) leukemia
[14] = test system: EKVX NSCLC
[15] = test system: NCI-H522 lung
[16] = test system: U251 CNS
[17] = test system: UO-31 renal
[18] = test system: KM12 colon
[19] = test system: OVCAR-8 ovarian
[20] = test system: TK-10 renal
[21] = test system: HCT-15 colon
[22] = test system: NCI-H460 lung
[23] = test system: BT-549 breast
[24] = test system: PC-3 prostate
[25] = test system: MOLT-4 leukemia
[26] = test system: SK-MEL-28 melanoma
[27] = test system: SK-OV-3 ovarian
[28] = test system: SF-295 CNS
[29] = test system: A549 NSCLC
[30] = test system: MDA-N
[31] = test system: SK-MEL-5 melanoma
[32] = test system: MALME-3M melanoma
[33] = test system: NCI-H226 lung
[34] = test system: M14 melanoma
[35] = test system: IGROV1 ovarian
[36] = test system: CCRF-CEM leukemia
[37] = test system: SNB-75 CNS
[38] = test system: SF-268 CNS
[39] = test system: SNB-19 CNS
[40] = test system: ACHN renal
[41] = test system: SN12C renal
[42] = test system: NCI/ADR-RES ovarian
[43] = test system: UACC-257 melanoma
[44] = test system: A498 renal
[45] = test system: HCC-2998 colon
[46] = test system: SW-620 colon
[47] = test system: LOX IMVI melanoma
[48] = test system: K-562 leukemia
[49] = test system: RPMI-8226 leukemia
[50] = test system: MDA-MB-435
[51] = test system: OVCAR-5 ovarian
[52] = test system: HS 578T breast
[53] = test system: 786-0 renal
[54] = test system: SF-539 CNS
[55] = test system: MDA-MB-231 breast
[56] = test system: HCT-116 colon
[57] = test system: SR leukemia
[58] = test system: HOP-62 NSCLC
[59] = test system: RXF 393 renal

CC1=C(C(=S)Nc2ccc(Cl)c(C(=O)OC(C)C)c2)SCCO1
TGI [1]: 32.6 µM
TGI [2]: 48.5 µM
TGI [3]: 37.4 µM
TGI [4]: 38.5 µM
TGI [5]: 48.9 µM
TGI [6]: 43.5 µM
TGI [7]: > 100 µM
TGI [8]: 51.7 µM
TGI [9]: 32.6 µM
TGI [10]: 57.1 µM
TGI [11]: 62.2 µM
TGI [12]: 52.7 µM
TGI [13]: 37.2 µM
TGI [14]: 54.4 µM
TGI [15]: 44.3 µM
TGI [16]: 36.2 µM
TGI [17]: 32.8 µM
TGI [18]: 33.5 µM
TGI [19]: 46.5 µM
TGI [20]: 54.3 µM
TGI [21]: 44.9 µM
TGI [22]: 44.6 µM
TGI [23]: 37.8 µM
TGI [24]: 46.4 µM
TGI [25]: 46.6 µM
TGI [26]: 35.4 µM
TGI [27]: 54.8 µM
TGI [28]: 36.4 µM
TGI [29]: 84.1 µM
TGI [30]: 39.2 µM
TGI [31]: 30.8 µM
TGI [32]: 36.9 µM
TGI [33]: 44.6 µM
TGI [34]: 44 µM
TGI [35]: 33.1 µM
TGI [36]: 44 µM
TGI [37]: 43.7 µM
TGI [38]: 60.8 µM
TGI [39]: 44.5 µM
TGI [40]: 85.9 µM
TGI [41]: 32.9 µM
TGI [42]: 43.2 µM
TGI [43]: 47 µM
TGI [44]: 30.7 µM
TGI [45]: 31.2 µM
TGI [46]: 44.7 µM
TGI [47]: 28.8 µM
TGI [48]: 43.6 µM
TGI [49]: 63.9 µM
TGI [50]: 42.7 µM
TGI [51]: > 100 µM
TGI [52]: 75.1 µM
TGI [53]: 30.2 µM
TGI [54]: 38.4 µM
TGI [55]: 33.2 µM
TGI [56]: 28.6 µM

COc1ccc2cc(CNCCCCCCNC(=O)Nc3cccc4ccccc34)ccc2c1
TGI [1]: > 100 µM
TGI [2]: > 100 µM
TGI [3]: > 100 µM
TGI [4]: > 100 µM
TGI [57]: > 100 µM
TGI [5]: > 100 µM
TGI [6]: > 100 µM
TGI [7]: > 100 µM
TGI [8]: > 100 µM
TGI [9]: > 100 µM
TGI [10]: > 100 µM
TGI [11]: > 100 µM
TGI [12]: > 100 µM
TGI [13]: > 100 µM
TGI [14]: > 100 µM
TGI [15]: > 100 µM
TGI [16]: > 100 µM
TGI [58]: > 100 µM
TGI [18]: > 100 µM
TGI [19]: > 100 µM
TGI [20]: > 100 µM
TGI [21]: > 100 µM
TGI [22]: > 100 µM
TGI [23]: > 100 µM
TGI [24]: > 100 µM
TGI [25]: > 100 µM
TGI [26]: > 100 µM
TGI [27]: > 100 µM
TGI [28]: > 100 µM
TGI [29]: > 100 µM
TGI [30]: > 100 µM
TGI [31]: > 100 µM
TGI [32]: > 100 µM
TGI [33]: > 100 µM
TGI [34]: > 100 µM
TGI [35]: > 100 µM
TGI [36]: > 100 µM
TGI [59]: > 100 µM
TGI [37]: > 100 µM
TGI [38]: > 100 µM
TGI [39]: > 100 µM
TGI [40]: > 100 µM
TGI [41]: > 100 µM
TGI [43]: > 100 µM
TGI [44]: > 100 µM
TGI [45]: > 100 µM
TGI [46]: > 100 µM
TGI [47]: > 100 µM
TGI [48]: > 100 µM
TGI [49]: > 100 µM
TGI [50]: > 100 µM
TGI [51]: > 100 µM
TGI [52]: > 100 µM
TGI [53]: > 100 µM
TGI [54]: > 100 µM
TGI [55]: > 100 µM
TGI [56]: > 100 µM
